Measured values reported in patent US6511662B1, “Treatment of cytomegalovirus using aminopeptidase N” (priority 1993, dated 2003).
Like-named read-outs stand apart in the source and are kept apart here.

Experiments:
[1] = test system: CMV strain AD169; assay: CMV AD169 infection of HL734 cells in the presence of aminopeptidase inhibitors, mIE immunocytochemistry; assay type: cell-based, human cytomegalovirus
Description: FIG. 2. […] Infection was quantitatively determined by spectrophotometric measurement of the cleavage of p-nitrophenyl-β-D-galactopyranoside by β-gal. Panel b: HL734 were infected with CMV strain AD169 (▪) or Semliki Forest Virus (SFV) ([]) in the presence of increasing concentration of bestatin. Infection was quantitatively determined by immunocytochemistry using an antibody to the mIE protein of CMV or immune serum to SFV and enumeration of infected calls. Panel c: the binding of ^35S-HCMV to MRC-5 cells in the presence of mouse IgG (X) or antibody to APN (∘). Panel d: the aminopeptidase N activity on the surface of HL734 (▪), NIH-3T3 (∘), hAPN-3T3 ([]), or hAPNmut-3T3 (Δ) cells expressed as optical density of reaction product p-nitroanilide.
(§1) Method. Infection of HL734 with CMV RC256 was performed as described in FIG. 1 in the presence of serial dilutions of either UT71 or a control mouse ascites. Cells were washed, fixed with glutaraldhyde and assayed for β-gal expression by incubation with p-nitrophenyl-β-D-galactopyranoside (1 mg/ml) and the production of p-nitrophenol was measured spectrophotometrically at 410 nm. To measure the effect of aminopeptidase inhibitors on viral infection, HL734 were preincubated with increasing concentrations of bestatin for 1 hour at 37° C., infected with CMV strain AD169 at an MOI=1-10 or SFV at an MOI=30 for 1 hour at 37° C., washed, and incubated in fresh media for six hours at 37° C. After fixation in ice cold acetone/methanol (1/1), CMV nuclear antigens were detected with a mouse monoclonal to the 72K CMV mIE protein (NEW/Dupont, Inc.) followed by a phycoerythrine-labelled F(ab′)2 fragment of rabbit-anti mouse IgG Dakopatts, Inc). […] Binding of HCMV to MRC-5 cells was carried out by incubating increasing concentration of ^35S-HCMV with MRC-5 cells for 2 hours at 4° C. Incubation was carried out in the presence of mouse IgG (Sigma, Inc.) or anti-leuM7 (Becton Dickinson, Inc.) at a concentration of 16 μg/ml. Cells were washed five times with hepes-buffered saline, solubilized with 0.5 M NaOH, and cell-associated ^35S-labelled virions was measured quantitatively by liquid scintillation counting. Aminopeptidase activity on intact cells was measured by plating 1-5×10^4 cells in 96-well plates, incubating overnight in fresh media, and the washed and incubated with alanine-p-nitroanilide (6 mM) at 37° C. At various times, the free p-nitroanilide released was measured spectrophoto-metrically at 410 nm. The aminopeptidase activity was normalized to cell number measured by BCA protein assay (Pierce). All measurements were determined in triplicate.
(§2) To investigate whether the enzymatic activity of APN is necessary for CMV infection, four different aminopeptidase inhibitors, actinonin, bestatin, 2,2′-dipyridyl and 1,10-phenanthroline, were evaluated for their effect on enzymatic activity and CMV infection bestatin and actinonin are competitive inhibitors of arinoneptidases, ard 1,10-phenanthroline and 2,2′-dipyridyl inhibit aminopeptidase activity by chelating zinc required for enzyme function.

[2] = test system: Semliki Forest Virus (SFV); assay: Semliki Forest Virus infection of HL734 cells, immunocytochemistry; assay type: cell-based; conditions: concentrations as in footnote d
Description: FIG. 2. Ability to inhibit infection by compounds that interact with human aminopeptidase N. Panel a: HL734 cells were infected with CMV strain RC256 in the presence of serial dilutions of either U71 (▪) or control mouse ascites ([]). Infection was quantitatively determined by spectrophotometric measurement of the cleavage of p-nitrophenyl-β-D-galactopyranoside by β-gal. Panel b: HL734 were infected with CMV strain AD169 (▪) or Semliki Forest Virus (SFV) ([]) in the presence of increasing concentration of bestatin. Infection was quantitatively determined by immunocytochemistry using an antibody to the mIE protein of CMV or immune serum to SFV and enumeration of infected calls. Panel c: the binding of ^35S-HCMV to MRC-5 cells in the presence of mouse IgG (X) or antibody to APN (∘). Panel d: the aminopeptidase N activity on the surface of HL734 (▪), NIH-3T3 (∘), hAPN-3T3 ([]), or hAPNmut-3T3 (Δ) cells expressed as optical density of reaction product p-nitroanilide.
as §1, with “Incubation was carried out in the presence of mouse IgG (Sigma, Inc.) or anti-leuM7 (Becton Dickinson, Inc.) at a concentration of 16 μg/ml.” left out

[3] = target: T1, human aminopeptidase N (Homo sapiens, UniProt P15144); assay: Aminopeptidase activity on intact cells with substrate alanine-p-nitroanilide; assay type: cell-based; conditions: concentrations as in footnote d
T1 construct: endogenous in cells
Method: as §1
as §2, with “function. […] Toxicity of these substances, measured by trypan blue uptake in cells treated with the inhibitors, was less than 10% in the highest concentrations used (data not shown).” for “function.”

[4] = Human betaherpesvirus 5, AD169, read-out: 50% inhibitory dose for CMV infection
[5] = chemical inhibitors at maximum non-toxic concentration: actinonin 5.45 mM, bestatin 4.35 mM, 1,10-phenanthroline 0.45 mM, 2,2′-dipyridyl 3.74 mM

T1 sequence (P15144 whole entry): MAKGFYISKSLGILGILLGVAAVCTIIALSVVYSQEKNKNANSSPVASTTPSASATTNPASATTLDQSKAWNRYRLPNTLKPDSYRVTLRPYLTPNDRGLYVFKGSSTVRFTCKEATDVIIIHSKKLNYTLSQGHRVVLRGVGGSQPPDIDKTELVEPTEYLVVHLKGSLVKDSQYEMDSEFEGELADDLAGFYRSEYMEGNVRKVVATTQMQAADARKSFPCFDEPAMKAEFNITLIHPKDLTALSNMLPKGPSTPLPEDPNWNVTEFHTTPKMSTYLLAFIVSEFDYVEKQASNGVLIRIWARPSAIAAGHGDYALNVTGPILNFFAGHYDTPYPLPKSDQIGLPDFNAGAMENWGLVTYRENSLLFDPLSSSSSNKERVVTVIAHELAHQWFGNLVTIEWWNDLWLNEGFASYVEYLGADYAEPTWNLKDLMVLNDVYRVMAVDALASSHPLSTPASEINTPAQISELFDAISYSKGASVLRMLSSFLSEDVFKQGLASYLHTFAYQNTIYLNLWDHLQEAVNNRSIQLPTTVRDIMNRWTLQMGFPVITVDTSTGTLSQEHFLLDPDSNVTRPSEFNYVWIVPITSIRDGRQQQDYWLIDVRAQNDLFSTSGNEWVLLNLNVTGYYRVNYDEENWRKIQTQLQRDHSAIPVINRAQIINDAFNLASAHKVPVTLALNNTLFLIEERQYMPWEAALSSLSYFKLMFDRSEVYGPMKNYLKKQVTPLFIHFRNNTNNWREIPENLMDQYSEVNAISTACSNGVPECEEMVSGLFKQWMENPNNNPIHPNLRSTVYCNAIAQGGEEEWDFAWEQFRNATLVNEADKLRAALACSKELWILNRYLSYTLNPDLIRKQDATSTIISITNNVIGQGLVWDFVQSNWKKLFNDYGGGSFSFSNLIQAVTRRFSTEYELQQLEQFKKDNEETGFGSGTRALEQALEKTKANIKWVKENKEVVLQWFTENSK

SMILES | IC50 [1, 4] | Inhibition of CMV Infection [1, 5] | Inhibition of SFV Infection [2] | Inhibition of aminopeptidase activity [3] | IC50 ([1]; HL734 cells, CMV AD169, read-out: 50% inhibitory dose for CMV infection) | inhibition at 5450 µM ([1]; Human betaherpesvirus 5, AD169, chemical inhibitors at maximum non-toxic concentration: actinonin 5.45 mM, bestatin 4.35 mM, 1,10-phenanthroline 0.45 mM, 2,2′-dipyridyl 3.74 mM) | IC50 ([1]; Human betaherpesvirus 5, HL734 cells, CMV AD169, read-out: 50% inhibitory dose for CMV infection) | inhibition at 4350 µM ([1]; Human betaherpesvirus 5, AD169, read-out: Inhibition of CMV Infection)
c1cnc2c(c1)ccc1cccnc12 [1,10-phenanthroline] | 0.25 mM | + (+ = >50 inhibition compared to mouse IgG control) | − (− = no inhibition) | + (+ = >50 inhibition compared to mouse IgG control) |  |  |  | 
c1ccc(-c2ccccn2)nc1 [2,2′-dipyridyl] |  | + (+ = >50 inhibition compared to mouse IgG control) | − (− = no inhibition) | + (+ = >50 inhibition compared to mouse IgG control) | 2.8 mM |  |  | 
CCCCC[C@H](CC(=O)NO)C(=O)N[C@H](C(=O)N1CCC[C@H]1CO)C(C)C [actinonin] |  |  | − (− = no inhibition) | + (+ = >50 inhibition compared to mouse IgG control) |  | > 50% | 3.3 mM | 
CC(C)C[C@H](NC(=O)[C@@H](O)[C@H](N)Cc1ccccc1)C(=O)O [bestatin] | 2.5 mM |  | − (− = no inhibition) | + (+ = >50 inhibition compared to mouse IgG control) |  |  |  | > 50%
